Results reported in US20200369626A1 (Washington University, priority 2019, published 2020).
Values joined by “and” are separate entries in the source; they are usually repeats but may differ in a detail not shown here. Equal entries are not always repeated. Where two headings read alike, the source gives them in different places. One block for each molecule: values may come before it.

Assays:
[1] = tested on: Experimental autoimmune encephalomyelitis (EAE); test: EAE clinical score in immunized mice, osmotic pump treatment; format: in vivo, female SJL/J mice; conditions: from day 9 postimmunization
S1PR2 = target: T1, S1PR2 (Homo sapiens, UniProt O95136); test: competitive [^32P]S1P binding assay on cell membranes, S1PR2
T1 construct: purchased
Procedure: The test compounds were dissolved in DMSO and diluted into test samples with increasing concentrations with assay buffer. Commercial cell membranes expressing recombinant human S1PR were diluted with assay buffer to make a 20-40 μg/mL of solution. […] The plate was incubated for 60 min at room temperature with shaking and terminated by collecting the membranes onto 96-well glass fiber (GF/B) filtration plates (Millipore, Billerica, Mass.). Each filter was washed with 200 μL of assay buffer for a total of five washes. […] The IC50 values were fitted from GraphPad Prism 6 using one site Nonlinear Regression.

S1PR3 = target: T2, S1PR3 (Homo sapiens, UniProt Q99500); test: competitive [^32P]S1P binding assay on cell membranes, S1PR3
T2 construct: purchased
Procedure: (§1) The test compounds were dissolved in DMSO and diluted into test samples with increasing concentrations with assay buffer. Commercial cell membranes expressing recombinant human S1PR were diluted with assay buffer to make a 20-40 μg/mL of solution. […] The plate was incubated for 60 min at room temperature with shaking and terminated by collecting the membranes onto 96-well glass fiber (GF/B) filtration plates (Millipore, Billerica, Mass.). Each filter was washed with 200 μL of assay buffer for a total of five washes. The filter bound radionuclide was measured by a Beckman LS 3801 scintillation counter using Cherenkov counting. The IC50 values were fitted from GraphPad Prism 6 using one site Nonlinear Regression.

S1PR1 = target: T3, S1PR1 (Homo sapiens, UniProt P21453); test: competitive [^32P]S1P binding assay on cell membranes, S1PR1
T3 construct: purchased
Procedure: as §1

S1PR4 = target: T4, S1PR4 (Homo sapiens, UniProt O95977); test: competitive [^32P]S1P binding assay on cell membranes, S1PR4
T4 construct: purchased
T4 sequence (O95977 1-384): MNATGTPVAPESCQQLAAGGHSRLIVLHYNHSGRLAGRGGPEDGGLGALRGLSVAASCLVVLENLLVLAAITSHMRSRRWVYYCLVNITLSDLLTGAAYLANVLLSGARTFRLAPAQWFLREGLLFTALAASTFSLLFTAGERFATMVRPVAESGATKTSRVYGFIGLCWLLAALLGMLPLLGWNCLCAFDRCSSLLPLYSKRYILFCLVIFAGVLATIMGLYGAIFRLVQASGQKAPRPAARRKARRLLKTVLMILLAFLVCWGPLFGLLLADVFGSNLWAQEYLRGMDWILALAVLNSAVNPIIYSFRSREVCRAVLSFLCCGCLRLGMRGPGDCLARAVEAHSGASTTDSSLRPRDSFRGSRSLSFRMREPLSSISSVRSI
Procedure: as §1

S1PR5 = target: T5, S1PR5 (Homo sapiens, UniProt Q9H228); test: competitive [^32P]S1P binding assay on cell membranes, S1PR5
T5 construct: purchased

[2] = target: T6, Human recombinant sphingosine-1-phosphate receptor 2 (Homo sapiens, UniProt O95136); test: competitive binding assay using [^125I]34 as radioligand; conditions: S1PR2, radioligand [^125I]34; read-out: [^125I]34 competition assay IC50
Procedure: Then, 50 μL of different concentrations (0.01, 0.05, 0.1, 0.5, 1.0, 5.0, 10.0, 50.0, 100, 500, 1000 nM) of each ligand and 50 μL of [^125]34 (6.0 nM) was added to each well. The mixture was incubated for 1 h on a shaker at room temperature and then transferred onto a 96-well glass fiber filtration plates. The unbound activity was filtered and rapidly washed using ice-cold assay buffer (5×200 μL/well). After drying under reduced pressure, the filter bound radionuclide was measured by a Beckman 8000 automated gamma counter. The binding potency (IC50) was calculated using GraphPad Prism.

[3] = biodistribution study of [^11C]2c in EAE and control mice; format: in vivo, female SJL mice; conditions: for tissue uptake: female, SJL, mouse, brain, other: injection
Procedure: A biodistribution study was conducted in female SJL EAE mice and control mice (at 9 weeks, n=4 for each group) to determine the tissue accumulation of the radiotracer post-injection of the dose.

[4] = target: T6, Human recombinant sphingosine-1-phosphate receptor 2; test: biochemical; format: binding
Procedure: Then, a 50 μL aliquot of increasing concentrations of [^125I]34 (0.2, 0.5, 1.0, 2.0, 4.0, 6.0, 8.0, 10.0, 16.0, and 20.0 nM) was added to each well; each concentration of [^125I]34 was calculated from the radioactivity and specific activity. […] The mixture was incubated at room temperature for 1 h on a shaker and then transferred onto 96-well glass fiber filtration plates. The unbound activity was filtered and rapidly washed away using 200 μL/well of ice-cold assay buffer for 5 times. After drying under the vacuum, the filter bound radionuclide was measured by a Beckman 8000 automated gamma counter. Data analysis was accomplished using GraphPad Prism (GraphPadSoftware, Inc., San Diego, Calif.). The specific binding was calculated by subtracting the non-specific binding from the total binding. The binding assay data were curve-fit to a one-site binding equation to generate the dissociation constant (Kd) of the [^125I]34.

[5] = ex vivo biodistribution study of [^125I]34 in Wistar rats
Procedure: A pilot biodistribution study was carried out in a small number of rats at early time points post-injection in order to minimize the amount of mixed (radioactive and biological) waste generated by in vivo work. […] Control and streptozotocin-treated Wistar rats were used 10 days after treatment for the preliminary pilot acute ex vivo biodistribution study described below.
As described above, adult male Wistar rats from Charles River were used for a pilot study to evaluate the distribution of [^125I]34 in normal rats at 5 and 30 min post injection and in acute streptozotocin-induced diabetic rats 30 min post-injection (n=4 for each group). The acute streptozotocin-induced diabetic rats were treated 10 days before the study as described above. […] The concentrated solution of [^125I]34 was diluted to ˜0.037 MBq/100 μL which was formulated for injection in 10% ethanol in 5% polyoxyethylated 12-hydroxystearic acid (Kolliphor® HS 15, Millipore Sigma, Billerica, Mass.) and normal saline solution, in order to ensure that the radioactivity was solubilized. Rats were injected via the lateral tail vein under 2-3% isoflurane/oxygen anesthesia, then allowed to recover until euthanized under isoflurane/oxygen anesthesia at the appropriate time point post-injection. Tissues including blood, heart, lung, liver, kidney, muscle, fat, pancreas, spleen, kidney, liver, thyroid, thymus, brain, and small intestines were collected, weighed, and counted in a Beckman Gamma 8000 counter, and counts were corrected for background and decay corrected. Tracer uptake in tissues and organs was calculated as percent injected dose per gram of tissue (% ID/g).

[6] = target: T7, sphingosine-1-phosphate receptor 2 in kidney sections (Rattus norvegicus, UniProt P47752); test: in vitro autoradiography of [^125I]34 on rat kidney sections; format: binding, Sprague Dawley rats
T7 construct: from tissue; host or cells: kidney of male Sprague Dawley rats (control and STZ-induced diabetic)
Procedure: To check that changes of S1PR2 expression can be detected using [^125I]34 in the STZ induced diabetes rats, in vitro autoradiography studies of [^125]34 were performed.
Male Sprague Dawley (SD) rats (8 weeks old,) received streptozotocin (STZ) via tail vein injections at a dose of 55 mg/kg in 50 mM sodium citrate buffer 12 weeks prior to euthanasia and tissue harvesting. Body weight and blood glucose levels were measured weekly in control and treated animals, where elevated blood glucose was indicative of chronic diabetes (see FIG. 5a). After 12 weeks, the rats were euthanized and one kidney was removed, snap-frozen, and sectioned (14 microns) with a Leica cryostat.
The autoradiography experiment was performed by incubating frozen cross sections of rat kidney tissue and 1.85 KBq/slide of [^125I]34 in 500 μL of binding buffer (50 mM HEPES-Na pH 7.5, 5 mM MgCl2, and 1 mM CaCl2, 0.5% fatty acid-free bovine serum albumin) to check the uptake of the radioactivity. Blocking studies of radiotracer were performed by incubating the above solution with 10 μM of JTE-013, a S1PR2 specific inhibitor. After incubation for 60 minutes at room temperature, the kidney sections were washed 2 minutes each using the following buffers sequentially: 1×TBST, 15% ethanol in 1×TBST, 30% ethanol in 1×TBST, 1×TBST (1×TBST buffer: 20 mM of Tris, 150 mM of NaCl, 0.1% of Tween 20). Then, the section slides were placed into a cassette and exposed to a phosphor sensor sheet for 24 hours. Autoradiography signal was visualized by phosphor-imaging of FLA7000. Autoradiography signal on the renal tissues (cortex and medulla, not including the renal papilla) was measured and quantified with Multi Gouge program. The data was background-corrected and expressed as photo-stimulated luminescence signals per square millimeter (PSL/mm^2) as shown in FIG. 5B. For statistical comparison, the student t-test (unpaired) was applied using MS Excel and p<0.05 was considered statistically significant (see FIG. 5C.)

T7 sequence (P47752 whole entry): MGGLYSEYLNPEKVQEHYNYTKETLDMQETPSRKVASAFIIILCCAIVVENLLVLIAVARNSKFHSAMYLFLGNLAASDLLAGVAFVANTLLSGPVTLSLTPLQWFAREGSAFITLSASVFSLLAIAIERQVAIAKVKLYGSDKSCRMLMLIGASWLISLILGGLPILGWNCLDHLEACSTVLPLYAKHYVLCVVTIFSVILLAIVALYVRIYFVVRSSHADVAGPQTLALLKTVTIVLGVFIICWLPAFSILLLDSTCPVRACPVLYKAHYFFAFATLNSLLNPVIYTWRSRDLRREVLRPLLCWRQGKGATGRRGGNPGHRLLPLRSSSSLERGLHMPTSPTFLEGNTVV
T1 sequence (O95136 whole entry): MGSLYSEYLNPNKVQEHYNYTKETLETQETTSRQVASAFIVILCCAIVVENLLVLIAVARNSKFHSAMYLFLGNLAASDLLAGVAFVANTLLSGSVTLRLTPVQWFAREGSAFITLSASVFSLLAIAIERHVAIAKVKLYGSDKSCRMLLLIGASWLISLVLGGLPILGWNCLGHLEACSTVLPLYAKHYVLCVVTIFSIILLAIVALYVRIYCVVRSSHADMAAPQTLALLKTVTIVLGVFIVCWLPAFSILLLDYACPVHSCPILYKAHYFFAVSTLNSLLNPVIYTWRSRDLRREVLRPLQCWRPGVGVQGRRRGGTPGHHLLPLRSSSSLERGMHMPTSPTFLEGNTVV
T6 sequence (O95136 whole entry): as above
T2 sequence (Q99500 whole entry): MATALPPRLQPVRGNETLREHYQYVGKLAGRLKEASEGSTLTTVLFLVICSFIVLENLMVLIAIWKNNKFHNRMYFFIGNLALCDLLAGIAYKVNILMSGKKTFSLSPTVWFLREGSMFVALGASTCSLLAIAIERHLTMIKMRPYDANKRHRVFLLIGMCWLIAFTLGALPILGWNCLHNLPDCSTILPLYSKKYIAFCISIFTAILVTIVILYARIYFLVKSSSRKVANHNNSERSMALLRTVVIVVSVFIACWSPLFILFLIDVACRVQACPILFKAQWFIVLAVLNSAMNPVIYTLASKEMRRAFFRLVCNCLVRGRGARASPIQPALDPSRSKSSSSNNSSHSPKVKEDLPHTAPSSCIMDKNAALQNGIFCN
T3 sequence (P21453 whole entry): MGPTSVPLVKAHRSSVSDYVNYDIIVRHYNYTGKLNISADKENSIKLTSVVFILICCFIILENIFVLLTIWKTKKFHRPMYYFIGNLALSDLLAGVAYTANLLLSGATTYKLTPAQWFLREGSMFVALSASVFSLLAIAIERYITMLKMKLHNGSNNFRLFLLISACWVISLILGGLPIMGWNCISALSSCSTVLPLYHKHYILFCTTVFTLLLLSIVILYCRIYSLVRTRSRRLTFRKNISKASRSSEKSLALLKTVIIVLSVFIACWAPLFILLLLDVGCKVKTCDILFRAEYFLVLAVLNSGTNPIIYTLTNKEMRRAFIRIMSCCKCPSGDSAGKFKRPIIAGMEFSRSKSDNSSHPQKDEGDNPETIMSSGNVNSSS
T5 sequence (Q9H228 whole entry): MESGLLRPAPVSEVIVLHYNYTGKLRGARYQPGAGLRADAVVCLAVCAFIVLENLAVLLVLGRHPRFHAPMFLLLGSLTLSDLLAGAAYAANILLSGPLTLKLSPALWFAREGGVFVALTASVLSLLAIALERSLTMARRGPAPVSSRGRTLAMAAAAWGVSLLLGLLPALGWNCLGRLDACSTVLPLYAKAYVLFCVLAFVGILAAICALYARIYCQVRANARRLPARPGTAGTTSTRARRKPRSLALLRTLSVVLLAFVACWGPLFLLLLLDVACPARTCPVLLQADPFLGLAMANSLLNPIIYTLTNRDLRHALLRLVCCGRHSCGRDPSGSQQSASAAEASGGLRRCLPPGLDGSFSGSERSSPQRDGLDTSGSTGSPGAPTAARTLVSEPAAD

IC50 (S1PR2; [^32P]S1P competition, read-out: IC50 value, S1PR2 binding): 5.7 ± 0.5 nM
Compound: COc1ccc(NC(=O)Cn2c(=O)c3ccccc3n(CC(=O)Nc3cc(Cl)c(OC)cc3OC)c2=O)cc1 [Compound 2c]
EAE disease course (clinical score) ([1]; 1 mg/kg, p<0.0002): significant improvement of EAE disease course
EAE disease course (clinical score) ([1]; 5 mg/kg, p<0.0001): significant improvement of EAE disease course

melting point: 79 to 81 °C
IC50 (S1PR3): > 1000 nM
IC50 (S1PR1): > 1000 nM
IC50 (S1PR4): > 1000 nM
IC50 (S1PR5): > 1000 nM
IC50 (S1PR2; [^32P]S1P competition, Table 2, read-out: IC50 S1PR2): 38.5 ± 6.3 nM
Compound: CC(C)CC1(O)CCN(C(=O)Nc2cc(Oc3ccc(F)cc3)cc(Sc3ccc(S(C)(=O)=O)cc3)c2)CC1 [Compound 28g, N-(3-(4-Fluorophenoxy)-5-((4-(methylsulfonyl)phenyl)-thio)phenyl)-4-hydroxy-4-isobutylpiperidine-1-carboxamide]

IC50 [2]: 4.4 ± 0.2 nM
IC50 (S1PR2; read-out: [^32P]S1P competition assay IC50, S1PR2, radioligand [^32P]S1P): 2.8 nM
Compound: COc1ccc(NC(=O)Cn2c(=O)c3ccccc3n(CC(=O)Nc3cc(I)c(OC)cc3OC)c2=O)cc1 [Compound 34, N-(5-iodo-2,4-dimethoxyphenyl)-2-(3-(2-((4-methoxyphenyl)amino)-2-oxoethyl)-2,4-dioxo-3,4-dihydroquinazolin-1(2H)-yl)acetamide]

uptake in brain, blood, heart, lung, and pancreas ([3]; EAE mice versus control): increased uptake
tissue uptake ([3]; EAE mice): 0.699 %ID/g
tissue uptake ([3]; control mice): 0.452 %ID/g
Compound: COc1ccc(NC(=O)Cn2c(=O)c3ccccc3n(CC(=O)Nc3cc(Cl)c(OC)cc3OC)c2=O)cc1 [[^11C]2c]

Compound: COc1ccc(NC(=O)Cn2c(=O)c3ccccc3n(CC(=O)Nc3cc([125I])c(OC)cc3OC)c2=O)cc1 [[^125I]34]
Kd [4]: 4.31 ± 0.39 nM
Uptake Blood ([5]; 5 min control): 0.19 % ID/g and 0.19 ± 0.05 % ID/g
Uptake Blood ([5]; 30 min acute diabetic): 0.08 ± 0.05 % ID/g
Uptake Blood ([5]; 30 min control): 0.08 ± 0.02 % ID/g
Uptake Brain ([5]; 5 min control): 0.01 % ID/g and 0.01 ± 0.00 % ID/g
Uptake Brain ([5]; 30 min acute diabetic): 0.01 ± 0.00 % ID/g
Uptake Brain ([5]; 30 min control): 0.01 ± 0.00 % ID/g
Uptake Fat ([5]; 5 min control): 0.07 ± 0.02 % ID/g
Uptake Fat ([5]; 30 min acute diabetic): 0.11 ± 0.04 % ID/g
Uptake Fat ([5]; 30 min control): 0.09 ± 0.01 % ID/g
Uptake Heart ([5]; 5 min control): 0.39 % ID/g and 0.39 ± .08 % ID/g
Uptake Heart ([5]; 30 min acute diabetic): 0.12 ± 0.06 % ID/g
Uptake Heart ([5]; 30 min control): 0.14 ± 0.02 % ID/g
Uptake Kidney ([5]; 5 min control): 0.58 % ID/g and 0.58 ± 0.02 % ID/g
Uptake Kidney ([5]; 30 min acute diabetic): 0.15 ± 0.06 % ID/g
Uptake Kidney ([5]; 30 min control): 0.15 ± 0.02 % ID/g
Uptake Liver ([5]; 5 min control): 2.20 % ID/g and 2.20 ± 0.32 % ID/g
Uptake Liver ([5]; 30 min acute diabetic): 0.36 ± 0.14 % ID/g
Uptake Liver ([5]; 30 min control): 0.36 ± 0.07 % ID/g
Uptake Lung ([5]; 5 min control): 0.64 % ID/g and 0.64 ± 0.01 % ID/g
Uptake Lung ([5]; 30 min acute diabetic): 0.20 ± 0.09 % ID/g
Uptake Lung ([5]; 30 min control): 0.22 ± 0.04 % ID/g
Uptake Muscle ([5]; 5 min control): 0.12 ± 0.01 % ID/g
Uptake Muscle ([5]; 30 min acute diabetic): 0.06 ± 0.02 % ID/g
Uptake Muscle ([5]; 30 min control): 0.08 ± 0.01 % ID/g
Uptake Pancreas ([5]; 5 min control): 0.40 ± 0.04 % ID/g
Uptake Pancreas ([5]; 30 min acute diabetic): 0.12 ± 0.04 % ID/g
Uptake Pancreas ([5]; 30 min control): 0.14 ± 0.01 % ID/g
Uptake Small intestines ([5]; 5 min control): 1.09 ± 0.23 % ID/g
Uptake Small intestines ([5]; 30 min acute diabetic): 2.59 ± 0.58 % ID/g
Uptake Small intestines ([5]; 30 min control): 5.32 ± 0.27 % ID/g
Uptake Spleen ([5]; 5 min control): 0.29 ± 0.06 % ID/g
Uptake Spleen ([5]; 30 min acute diabetic): 0.05 ± 0.02 % ID/g
Uptake Spleen ([5]; 30 min control): 0.06 ± 0.01 % ID/g
Uptake Thymus ([5]; 5 min control): 0.10 ± 0.01 % ID/g
Uptake Thymus ([5]; 30 min acute diabetic): 0.08 ± 0.03 % ID/g
Uptake Thymus ([5]; 30 min control): 0.10 ± 0.02 % ID/g
Uptake Thyroid ([5]; 5 min control): 0.32 ± 0.11 % ID/g
Uptake Thyroid ([5]; 30 min acute diabetic): 0.25 ± 0.06 % ID/g
Uptake Thyroid ([5]; 30 min control): 0.53 ± 0.09 % ID/g
in vivo metabolic stability ([5]; inferred from low activity in the thyroid): metabolically stable
crossing of the blood brain barrier ([5]; inferred from very low brain uptake in rats): does not cross the blood brain barrier
blocking of binding to kidney tissue ([6]; 10 μM of JTE-013, both groups): could be blocked
kidney radioactivity (autoradiography signal) ([6]; chronic diabetic (STZ) rats, n=5): 103.5 PSL/mm^2
increase of binding to kidney of diabetic rats compared to control rats ([6]; chronic diabetic vs control): 44%
kidney radioactivity (autoradiography signal) ([6]; control rats, n=4): 72.0 PSL/mm^2
